Values after ≈ are worked out from the molar mass of the structure shown. Some results are limits rather than exact numbers.

Usually IC50 stands for the concentration needed to halve the response being measured. Read a low IC50 as greater potency in that assay. The term thermodynamic solubility denotes solubility found after equilibrating the solid with the medium.

Data set [1] is described as follows: Intrinsic clearance in liver microsomes, mouse. It counts as in vitro ADME. The settings on record: pH 7.4, Method 1, read-out: Half-Life (T1/2) (min), Mouse. As for the experimental part:
From stock solution of compound on 10 mM DMSO, a working solution of 0.1 mM is prepared by diluting the compound in DMSO. 6.25 μL of a 20 mg/mL solution of microsomes in PBS pH 7.4 buffer is added to 216.25 μL PBS pH 7.4 buffer (final microsome concentration—0.5 mg/mL). 25 μL of 10 mM solution of NADPH in PBS pH 7.4 buffer is added to the incubations (final NADPH concentration—1 mM). The mixture is pre-warmed to 37° C. for 10 minutes. 2.5 μL of test compound working solution is added (final compound concentration—1 μM with 1% DMSO). Aliquots of 30 μL are taken from the reaction solution at 0.5, 5, 15, 30 and 60 minutes. The reaction was stopped by the addition of 5 volumes of cold acetonitrile with IS (100 nM alprazolam, 200 nM caffeine and 100 nM tolbutamide). Samples were centrifuged at 3, 220 g for 40 minutes. Aliquots of 100 μL of the supernatant are mixed with 100 μL of ultra-pure H2O and used for LC-MS/MS analysis. The percent compound remaining at each time point is calculated with respect to that of the 0.5 min sample. The data are analysed to calculate half-life. Control experiments are run without NADPH and blank samples are prepared using DMSO without the test compound.
A 50 mM stock solution (in DMSO) is prepared for the compound. From the stock solution, a working solution of 0.5 mM is prepared by diluting the compound in DMSO. This concentration of working solution is prepared considering a final concentration of 1 uM with 0.1% DMSO. The compound (1 μL of working solution) is spiked in PBS with pH 7.4 ([…]) at a concentration of 1 μM. Subsequently, 110 μL of 10 mM NADPH is added (as a co-factor). The sample is incubated at 37° C. for 15 min. Following this, pre-warmed liver microsomes (27.5 μL; final protein conc. 0.5 mg/mL) are added. The samples are then incubated at 37° C. Aliquots of samples are withdrawn at 0, 5, 15, 30, 45 and 60 min. The reaction is stopped by using chilled acetonitrile containing internal standard. The samples are centrifuged, and the supernatants analysed by LC-MS/MS. The percent compound remaining at each time point is calculated with respect to that of the 0 min sample. The data are then analysed to calculate half-life and intrinsic clearance (CLint). Control experiments are run without NADPH and blank samples are prepared using DMSO without the test compound.
Background: Liver microsomes are vesicles of endoplasmic reticulum, rich in cytochrome P450 enzymes.

For data set [2], the target named is BRD4 BD1 (Homo sapiens (Human), UniProt O60885). The experiment in a line: NanoBRET bromodomain assay, NanoLuc-BRD4-BD1 fusion in HEK293 cells. The class given is cell-based. Conditions: top concentration 10 μM. Background: In BRET a luciferase serves as donor, and the signal depends on an acceptor being close.
A short description of data set [3]: Plasma stability assay, human plasma. It counts as in vitro ADME. The settings on record: Method 1 (5 μM). Here is the method: (§1) From stock solution of compound in 10 mM DMSO, a working solution of 1 mM is prepared by diluting the compound in DMSO. To 398 μL of plasma pre-warmed at 37° C. for 15 minutes), 2 μL of working solution of compound is added, resulting in a final concentration of 5 μM (0.5% DMSO) for the compound. The sample is then incubated at 37° C. Aliquot is withdrawn at specified time-points (0, 15, 30, 60 and 120 mins). The reaction is stopped by addition of 450 μL cold acetonitrile containing internal standard (IS). […] Aliquots of the supernatant is analysed using LC-MS/MS. The percent remaining of the compound at each time point is calculated with respect to the control sample (0 min time-point).
(§2) A working solution of compound (500 μM) is prepared in DMSO (100%). To 735 μL of plasma, 15 μL of working solution of compound is added—resulting in a final concentration of 10 μM (2% DMSO) for the compound. The sample is then incubated at 37° C. Aliquot is withdrawn at time-points—0, 15, 30, 60, 90 and 120 mins. The reaction is stopped by using chilled acetonitrile containing internal standard (IS). The samples are centrifuged and the supernatants analyzed using LC-MS/MS. The percent remaining of the compound at each time point is calculated with respect to the control sample (0 min time-point).

The nature of data set [4]: Thermodynamic solubility in FaSSIF pH 6.5 buffer. The class given is physicochemical. Conditions: FaSSIF buffer, 25 °C, pH 6.5, fassif, thermodynamic from solid; for solubility thermodynamic: Method 2 (LCMS, 25° C.). Here is the method: FaSSIF v2 buffer is freshly prepared prior to use according to the suppliers' instructions and the pH adjusted to 6.5 using 1 M NaOH or 1 M HCl as required. From 1 mM working solution of test compound in DMSO, the λmax of the test compound is determined by scanning from 200 nm to 700 nm, in 1 nm steps with an EPOCH UV/Visible spectrophotometer (Biotek Instruments Inc.). A 12-point standard curve of compound concentration versus absorption at λmax is generated via two-fold serial dilutions of the 1 mM working solution with DMSO. Approximately 1 mg of test compound is accurately weighed into an Eppendorf tube and the appropriate volume of FaSSIF buffer is added to make a nominal concentration of 1 mg/mL. The tube is incubated on a rotator at 20 rpm, 25° C. for 24 hrs. Samples are then filtered using 0.45 μm filters (Sartorious, CAT #1776C) and the filtrate subjected to UV-vis spectroscopy analysis. The absorption at λmax is compared to the standard curve to determine the concentration of compound in solution after 24 hours.
FaSSIF buffer was prepared according to the suppliers' instructions and the pH adjusted to 6.5 using 1 M NaOH or 1 M HCl as required. […] A stir stick was added to each vial and vials sealed with a moulded PTDE/SIL 96-well plate cover. The plate was shaken at 25° C. at 1,100 rpm using an Eppendorf Thermomixer Comfort plate shaker. The plates were filtered using a vacuum manifold and diluted with a mixture of H2O and acetonitrile containing internal standard. The concentration of the test compound in the filtrate was determined by LCMS analysis with reference to the internal standards to determine the solubility in the buffer.

Data set [5] in a line: Plasma stability assay, mouse plasma. The class given is in vitro ADME. Conditions: Method 1 (5 μM). Here is the method:
as §1, §2

The nature of data set [6]: Plasma stability assay, rat plasma. It counts as in vitro ADME. As for the experimental part: as §1, §2
The nature of data set [7]: Sprague-Dawley rat pharmacokinetics, IV and PO cassette dosing. The class given is in vivo. The settings on record: for PO F: PO 5 mg/kg; for half-life: male, Sprague-Dawley, rat, plasma, iv, 1 mg/kg, Method 1, read-out: IV T1/2 (converted). A digest of the protocol: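 Male Sprague-Dawley rats (2 per arm) given up to 5 compounds in cassette, 1 mg/kg IV and 5 mg/kg PO, formulated in 5% DMSO/40% PEG-400/55% water. Plasma from serial blood samples was acetonitrile-precipitated and analysed by LC/MS/MS against matrix-matched standard curves.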

Data set [8] deals with BRD4 BD2 (Homo sapiens (Human), UniProt O60885). Description: NanoBRET bromodomain assay, NanoLuc-BRD4-BD2 fusion in HEK293 cells.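 As to all read-outs here: tracer displacement BRET read in transfected cells after 2 h compound exposure at 37 °C, signal in milliBRET units corrected against no-tracer background wells.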 Conditions: for IC50: BRD4 BD2 (IC50), NanoBRET, HEK293 cells, top concentration 10 μM; for Fold selectivity: IC50 for BRD4 BD1 divided by IC50 for BRD4 BD2, qualitative if an IC50 is at the upper limit.
Data set [9] can be described thus: Intrinsic clearance in liver microsomes, rat. The settings on record: rat, liver microsomes, pH 7.4, rat liver microsomes, Method 1; read-out: Half-Life (T1/2) (min), Rat. The class given is in vitro ADME. A digest of the protocol: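 Compound at 1 μM (0.1–1% DMSO) incubated at 37 °C with mouse or rat liver microsomes (0.5 mg/mL protein) and 1 mM NADPH in PBS pH 7.4; samples taken up to 60 min and quenched in cold acetonitrile. LC-MS/MS of percent remaining gave half-life and CLint; no-NADPH controls run.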

As to `CNC(=O)c1[nH]c(C(=O)N[C@H]2CC[C@H](O)CC2)cc1OC(C)c1ccccc1` (single isomer, unassigned) [Example 97, N^5-(trans-4-hydroxycyclohexyl)-N^2-methyl-3-(1-phenylethoxy)-1H-pyrrole-2,5-dicarboxamide], the half-life at 1 μM in data set [1] was 70 min; in data set [9], greater than 60 min. Besides, the IC50 in [2] was no less than 10000 nM; in data set [8], 50 to 200 nM. Moreover, in data set [3], the “Plasma Stability (% remaining at 120 minutes), Human” value is greater than 99%. The same compound yielded a thermodynamic solubility at 24 h in data set [4] (Method 1 (UV-vis, 25° C., 24 hrs)) of 418 µM (≈ 161 µg/mL). In addition, in [5], the “Plasma Stability (% remaining at 120 minutes), Mouse” value is reported as 93%. In addition, the “Plasma Stability (% remaining at 120 minutes), Rat” value in data set [6] (Method 1 (5 μM)) is on record as greater than 99%. For the same compound, in data set [7] (Method 1), the “PO F” value worked out at 60%. Also, in data set [7] (IV 1 mg/kg), the half-life was 1.4 h. Further, in [8], the Fold selectivity result is “XX (Fold >50 and ≤200)”.
`C#Cc1ccc(C(C)Oc2cc(C(=O)NCC)[nH]c2C(=O)NC)cc1` (single isomer, unassigned) [Example 70, N^5-ethyl-3-(1-(4-ethynylphenyl)ethoxy)-N^2-methyl-1H-pyrrole-2,5-dicarboxamide] had an IC50 in [2] of no less than 10000 nM. For the same compound, the solubility (thermodynamic) in [4] came to 365 µM (≈ 124 µg/mL). Also, the “Plasma Stability (% remaining at 120 minutes), Rat” value in data set [6] (Method 2 (10 μM)) turned out to be 92%. In addition, in [7] (Method 1), the “PO F” value is reported as 44%. Further, the half-life in [7] (IV 1 mg/kg) is 0.6 h. In [8], the IC50 was less than 50 nM and the Fold selectivity entry is “XXX (Fold >200)”. Moreover, the half-life at 1 μM in data set [9] stood at 60 min.
In the case of `CNC(=O)c1[nH]c(C(=O)NC2CCC2)cc1OC(C)c1ccc(Cl)cn1` (single isomer, unassigned) [Example 33, 3-(1-(5-chloropyridin-2-yl)ethoxy)-N^5-cyclobutyl-N^2-methyl-1H-pyrrole-2,5-dicarboxamide], the IC50 in data set [2] was no less than 10000 nM. Besides, the solubility (thermodynamic) in data set [4] amounted to 685 µM (≈ 258 µg/mL). Besides, in data set [6] (Method 2 (10 μM)), the “Plasma Stability (% remaining at 120 minutes), Rat” value is recorded as 85%. Further, in [8], the IC50 fell in the range of 50 to 200 nM; the Fold selectivity entry was “XX (Fold >50 and ≤200)”. Also, the half-life at 1 μM in [9] was greater than 60 min.
Regarding `CNC(=O)c1[nH]c(C(=O)NC2CC2)cc1O[C@@H](C)c1ccccc1F` [Example 59, (S)—N^5-cyclopropyl-3-(1-(2-fluorophenyl)ethoxy)-N^2-methyl-1H-pyrrole-2,5-dicarboxamide], the IC50 in data set [2] is no less than 10000 nM. The thermodynamic solubility in data set [4] was found to be 635 µM (≈ 219 µg/mL). Besides, the “Plasma Stability (% remaining at 120 minutes), Rat” value in data set [6] (Method 2 (10 μM)) was 50%. In data set [7] (IV 1 mg/kg, Method 1), the “IV T1/2” value was 1.1 h. Further, in [7] (Method 1), the “PO F” value worked out at 70%. In addition, in data set [8], the IC50 fell in the range of 50 to 200 nM; the Fold selectivity entry was “XX (Fold >50 and ≤200)”. For the same compound, the half-life at 1 μM in data set [9] is greater than 60 min.
In data set [2], `CNC(=O)c1[nH]c(C(=O)NC2CC2)cc1O[C@@H](C)c1ccc(Cl)cc1` [Example 62, (S)-3-(1-(4-chlorophenyl)ethoxy)-N^5-cyclopropyl-N^2-methyl-1H-pyrrole-2,5-dicarboxamide] registered an IC50 of no less than 10000 nM. For the same compound, the thermodynamic solubility in data set [4] came to 320 µM (≈ 116 µg/mL). Moreover, in data set [6] (Method 2 (10 μM)), the “Plasma Stability (% remaining at 120 minutes), Rat” value was found to be 82%. In data set [7] (Method 1), the “PO F” value is 8%. In data set [7] (IV 1 mg/kg), the half-life is 0.5 h. Further, in data set [8], the IC50 was less than 50 nM and the Fold selectivity entry is “XXX (Fold >200)”. Moreover, the half-life at 1 μM in data set [9] was greater than 60 min.
